# Laboratory results: US4410541A, “Composite for improving lipid metabolism” (Nihon Nosan Kogyo K.K., priority 1981, dated 1983)
# Assay: Animal Experiment 2: whole cholesterol in hypercholesterolemia rats (Zurkowski's method)
# Format: in vivo, rats of Wistar descent
# Conditions: male Wistar rats on cholesterol feed, five days; composite oral 75 μg monoiodohistidine/day/rat, contrast groups equal iodine amount; control group 335
# Procedure: A test groups consisted of ten heads of male rats of Wistar descent, which weighed about 120 g. The test group was fed in a cage at 24±1° C. of temperature and at 50 to 60% of humidity. […] The composite to be tested was made from the yolk of egg of the egg-laying hens to which calcium iodate was fed. The composite was dissolved in distilled water, and then orally dosed to the rats by means of a stomach probe at the rate of 75 μg of monoiodohistidine per day per rat for five days in parallel with feeding of the cholesterol containing feed. The rats were caused to fast for a night after composite dosing was finished, and next morning blood was taken from fundus of the rat's eyes in order to measure the amount of whole cholesterol by Zurkowski's method.
# A control group, a contrast group (1) and a contrast group (2) equally consisted of rats which got hypercholesterolemia by the same process as mentioned in the test group. While potassium iodide was dosed to the contrast group (1) so that the iodine amount would be equal to that of the test group, iodo-lecithin was dosed to the contrast group (2) so that the iodine amount would be equal to that of the test group. On the other hand, no iodine agent or compound was dosed to the control group. And, as to the rats of these groups, the amount of whole cholesterol was measured by the same method as mentioned in the test group.
row,Molecule,Amount of whole Cholesterol
1,iodo-lecithin,325 mg/dL
2,[I-].[K+] [potassium iodide],323 mg/dL
